Measurements taken from patent US10561638B2, “Methods for treating dependence” (Biotie Therapies, Inc., priority 2007, dated 2020).

Assays:
[1] = biological target: T1, human dopamine β-hydroxylase (Homo sapiens, UniProt P09172); test: DBH assay, conversion of tyramine to octopamine; assay type: biochemical
T1 construct: Human secretory DBH was purified from the culture medium of the neuroblastoma cell line SK-N-SH; endogenous in cells; host or cells: SK-N-SH neuroblastoma cells (enzyme secreted into the culture medium, purified on lentil lectin-sepharose)
T1 sequence (P09172 40-617 limits assumed): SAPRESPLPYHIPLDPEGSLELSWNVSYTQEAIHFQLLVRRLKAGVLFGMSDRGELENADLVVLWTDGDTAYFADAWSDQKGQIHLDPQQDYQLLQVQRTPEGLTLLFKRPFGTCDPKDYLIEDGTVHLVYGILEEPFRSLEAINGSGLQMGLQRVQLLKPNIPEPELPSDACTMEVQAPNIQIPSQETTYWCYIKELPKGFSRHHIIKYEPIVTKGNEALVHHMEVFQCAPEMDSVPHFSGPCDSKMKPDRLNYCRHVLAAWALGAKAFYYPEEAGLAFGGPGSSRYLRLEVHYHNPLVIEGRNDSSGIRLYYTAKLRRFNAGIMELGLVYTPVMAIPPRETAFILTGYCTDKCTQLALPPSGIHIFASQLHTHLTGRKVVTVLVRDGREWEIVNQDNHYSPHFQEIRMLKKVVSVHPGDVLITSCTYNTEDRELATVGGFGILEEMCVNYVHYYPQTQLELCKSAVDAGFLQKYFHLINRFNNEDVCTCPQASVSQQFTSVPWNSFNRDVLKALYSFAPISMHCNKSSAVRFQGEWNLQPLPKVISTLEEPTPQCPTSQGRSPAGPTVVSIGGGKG
Experimental: Bovine and human dopamine β-hydroxylase activity were assayed by measuring the conversion of tyramine to octopamine. Bovine adrenal dopamine β-hydroxylase was obtained from Sigma Chemicals (St Louis, Mo., USA) whereas human dopamine β-hydroxylase was purified from the culture medium of the neuroblastoma cell line SK-N-SH. The assay was performed at pH 5.2 and 32° C. in a medium containing 0.125 M NaAc, 10 mM fumarate, 0.5-2 μM CuSO4, 0.1 mg·ml^−1 catalase, 0.1 mM tyramine and 4 mM ascorbate. In a typical assay, 0.5-1 milliunits of enzyme were added to the reaction mixture and, subsequently, a substrate mixture containing catalase, tyramine and ascorbate was added to initiate the reaction (final volume of 200 μl). Samples were incubated with or without the appropriate concentration of nepicastat or Compound B at 37° C. for 30 to 40 minutes. The reaction was quenched by the stop solution containing 25 mM EDTA and 240 μM 3-hydroxytyramine (internal standard). The samples were analyzed for octopamine by reverse phase high pressure liquid chromatography (HPLC) using ultraviolet-detection at […]. The HPLC chromatography run was carried out at the flow rate of 1 ml·min^−1 using a LiChroCART 125-4 RP-18 column and isocratic elution with 10 mM acidic acid, 10 mM 1-heptane sulfonic acid, 12 mM tetrabutyl ammonium phosphate and 10% methanol. The remaining percent activity was calculated based on controls, corrected using internal standards and fitted to a non-linear four-parameter concentration-response curve.
DBH activity was assayed by measuring the conversion of tyramine to octopamine. Bovine DBH from adrenal glands was obtained from Sigma Chemical Co (St Louis, Mo.). Human secretory DBH was purified from the culture medium of the neuroblastoma cell line SK-N-SH. The assay was performed at pH 5.2 and 32° C. in 0.125 M NaOAc, 10 mM fumarate, 0.5-2 μM CUSO4, 0.1 mg/mL catalase, 0.1 mM tyramine and 4 mM ascorbate. In a typical assay, 0.5-1 milliunits of enzyme were added to the reaction mixture and then a substrate mixture containing catalase, tyramine and ascorbate was added to initiate the reaction (final volume of 200 μL). Samples were incubated with or without the appropriate concentration of the inhibitor at 37° C. for 30-40 min. The reaction was quenched by the stop solution containing 25 mM EDTA and 240 μM 3-hydroxytyramine (internal standard). The samples were analyzed for octopamine by reverse phase HPLC using UV detection at […]. The remaining percent activity was calculated based on controls (without inhibitor), corrected using internal standards and fitted to a non-linear 4-parameter concentration-response curve to obtain IC50 values.
Bovine DBH from adrenal glands was obtained from Sigma Chemicals (St. Louis, Mo.). Human secretory DBH was purified from the culture medium of the neuroblastoma cell line SK-N-SH and was used to obtain the inhibition data. A lentil lectin-sepharose column containing 25 ml gel was prepared and equilibrated with 50 mM KH2PO4, pH 6.5, 0.5 M NaCl. The column was eluted with 35 ml of 10% methyl a, D-mannopyranoside in 50 mM KH2PO4, pH 6.5, 0.5 M NaCl at 0.5 ml/min. Fraction containing most enzymatic activities were pooled and concentrated with an Amicon stirred cell using a YM30 membrane. Methyl a, D-mannopyranoside was removed by buffer exchange with in 50 mM KH2PO4, pH 6.5, 0.1M NaCl. The concentrated enzyme solution was aliquoted and stored at −25° C.
An HPLC assay was used to measure DBH activity using tyramine and ascorbate as substrates. […]

[2] = biological target: D1 dopamine receptors (Homo sapiens, UniProt P21728); test: Radioligand binding assay
Chain of D1 dopamine receptors (P21728 whole entry): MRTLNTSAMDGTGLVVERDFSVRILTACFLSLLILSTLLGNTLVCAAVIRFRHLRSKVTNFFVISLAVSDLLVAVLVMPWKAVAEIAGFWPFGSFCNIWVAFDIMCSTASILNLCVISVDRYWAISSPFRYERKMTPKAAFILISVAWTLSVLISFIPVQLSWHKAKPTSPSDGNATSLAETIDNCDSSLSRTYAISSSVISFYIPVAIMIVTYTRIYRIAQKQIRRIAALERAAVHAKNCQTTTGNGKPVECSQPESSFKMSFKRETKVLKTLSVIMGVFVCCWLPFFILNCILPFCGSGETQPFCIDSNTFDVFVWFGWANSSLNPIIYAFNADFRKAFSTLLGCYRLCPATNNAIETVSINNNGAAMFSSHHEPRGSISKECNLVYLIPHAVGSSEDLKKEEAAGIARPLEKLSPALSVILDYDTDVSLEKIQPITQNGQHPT
Experimental: (§1) The activity of nepicastat at twelve selected enzymes and receptors was determined using established assays. Binding data were analyzed by iterative curve-fitting to a four parameter logistic equation. Ki values were calculated from IC50 values using the Cheng-Prusoff equation. Enzyme inhibitory activity was expressed as IC50 (concentration required to produce 50% inhibition of enzyme activity).
(§2) The activity of nepicastat at eleven different enzymes was determined using established assays. The affinity of nepicastat for thirteen selected receptors was determined by radioligand binding assays using standard filtration techniques and membrane preparations. Binding data were analyzed by iterative curve fitting to a four parameter logistic equation. Ki values were calculated using the Cheng-Prusoff equation.
(§3) The binding affinity for nepicastat was screened at selected receptors. […] Thus nepicastat and its primary metabolite were not potent inhibitors for the receptors listed above.

[3] = biological target: 5-HT2C serotonin receptors (Homo sapiens, UniProt P28335); test: Radioligand binding assay
Chain of 5-HT2C serotonin receptors (P28335 33-458): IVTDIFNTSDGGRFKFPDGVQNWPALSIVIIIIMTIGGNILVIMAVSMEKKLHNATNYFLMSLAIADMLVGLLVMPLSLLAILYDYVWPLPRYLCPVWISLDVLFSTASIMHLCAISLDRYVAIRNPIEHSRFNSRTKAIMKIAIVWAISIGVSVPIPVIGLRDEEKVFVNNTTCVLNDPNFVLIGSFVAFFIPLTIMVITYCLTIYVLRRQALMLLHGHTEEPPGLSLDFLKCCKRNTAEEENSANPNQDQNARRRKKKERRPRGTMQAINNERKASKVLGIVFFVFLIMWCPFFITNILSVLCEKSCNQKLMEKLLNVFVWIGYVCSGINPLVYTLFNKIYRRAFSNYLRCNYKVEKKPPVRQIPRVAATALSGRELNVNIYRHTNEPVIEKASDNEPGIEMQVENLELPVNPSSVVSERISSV
Experimental: as §1, §2, §3

[4] = biological target: 5-HT2A serotonin receptors (Homo sapiens, UniProt P28223); test: Radioligand binding assay
Chain of 5-HT2A serotonin receptors (P28223 whole entry): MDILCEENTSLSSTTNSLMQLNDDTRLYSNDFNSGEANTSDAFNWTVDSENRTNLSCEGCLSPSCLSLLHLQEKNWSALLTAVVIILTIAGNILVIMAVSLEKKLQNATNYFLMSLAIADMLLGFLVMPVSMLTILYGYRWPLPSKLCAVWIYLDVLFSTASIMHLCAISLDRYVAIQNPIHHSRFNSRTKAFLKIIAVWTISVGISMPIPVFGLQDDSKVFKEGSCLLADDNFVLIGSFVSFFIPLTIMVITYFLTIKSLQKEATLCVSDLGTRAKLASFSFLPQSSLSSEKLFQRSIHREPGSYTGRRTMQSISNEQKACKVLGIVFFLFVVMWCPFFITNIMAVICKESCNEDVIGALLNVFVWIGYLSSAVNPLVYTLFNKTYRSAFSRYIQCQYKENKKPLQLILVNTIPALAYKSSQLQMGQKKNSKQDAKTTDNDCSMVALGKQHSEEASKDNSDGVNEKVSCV
Experimental: as §1, §2, §3

[5] = biological target: M1 muscarinic receptors (Homo sapiens, UniProt P11229); test: Radioligand binding assay
Chain of M1 muscarinic receptors (P11229 whole entry): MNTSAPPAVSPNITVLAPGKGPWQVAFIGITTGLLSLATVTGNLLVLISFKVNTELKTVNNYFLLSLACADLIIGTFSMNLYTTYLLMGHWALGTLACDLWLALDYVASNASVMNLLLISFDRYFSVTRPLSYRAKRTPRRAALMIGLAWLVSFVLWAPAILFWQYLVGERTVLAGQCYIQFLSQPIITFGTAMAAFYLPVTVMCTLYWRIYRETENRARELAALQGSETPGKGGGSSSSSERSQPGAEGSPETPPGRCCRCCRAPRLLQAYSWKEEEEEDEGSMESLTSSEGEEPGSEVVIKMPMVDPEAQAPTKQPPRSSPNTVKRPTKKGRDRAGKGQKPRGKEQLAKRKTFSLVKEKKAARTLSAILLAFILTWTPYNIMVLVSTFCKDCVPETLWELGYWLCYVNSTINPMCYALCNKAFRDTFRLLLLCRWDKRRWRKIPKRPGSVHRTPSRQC
Experimental: as §1, §2, §3

[6] = biological target: D2 dopamine receptors (Homo sapiens, UniProt P14416); test: Radioligand binding assay
Chain of D2 dopamine receptors (P14416 whole entry): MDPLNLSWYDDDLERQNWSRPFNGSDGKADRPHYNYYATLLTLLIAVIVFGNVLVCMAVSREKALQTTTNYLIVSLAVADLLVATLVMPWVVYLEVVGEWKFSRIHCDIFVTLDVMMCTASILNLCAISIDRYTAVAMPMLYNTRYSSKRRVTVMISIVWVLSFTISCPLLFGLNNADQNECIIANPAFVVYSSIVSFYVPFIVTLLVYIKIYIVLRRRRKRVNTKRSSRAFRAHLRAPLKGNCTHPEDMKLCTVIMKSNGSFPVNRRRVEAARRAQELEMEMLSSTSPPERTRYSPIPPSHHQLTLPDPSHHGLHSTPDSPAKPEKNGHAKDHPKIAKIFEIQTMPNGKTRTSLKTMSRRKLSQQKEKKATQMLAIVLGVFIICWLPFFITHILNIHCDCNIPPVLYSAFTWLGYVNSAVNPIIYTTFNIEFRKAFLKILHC
Experimental: as §1, §2, §3

[7] = biological target: 5-HT1A serotonin receptors (Homo sapiens, UniProt P08908); test: Radioligand binding assay
Chain of 5-HT1A serotonin receptors (P08908 whole entry): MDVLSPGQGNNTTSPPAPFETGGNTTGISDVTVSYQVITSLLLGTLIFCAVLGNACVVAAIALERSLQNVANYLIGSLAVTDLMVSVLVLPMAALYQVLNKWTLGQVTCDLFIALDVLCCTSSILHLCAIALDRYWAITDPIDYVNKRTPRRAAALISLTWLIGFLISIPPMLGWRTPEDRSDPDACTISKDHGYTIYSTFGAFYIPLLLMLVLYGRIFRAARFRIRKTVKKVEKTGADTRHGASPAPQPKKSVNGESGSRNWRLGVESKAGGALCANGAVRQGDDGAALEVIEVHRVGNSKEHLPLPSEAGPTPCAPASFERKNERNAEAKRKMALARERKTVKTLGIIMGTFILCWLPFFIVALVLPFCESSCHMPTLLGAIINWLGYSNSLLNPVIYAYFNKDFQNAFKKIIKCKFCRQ
Experimental: as §1, §2, §3

Row | Structure (SMILES) | IC50 ([1]; 0.1 mM tyramine, 4 mM ascorbate, pH 5.2) | selectivity for dopamine-β-hydroxylase over the other enzymes studied [1] | potency of nepicastat relative to SKF-102698 ([1]; human DBH) | potency of nepicastat relative to SKF-102698 ([1]; human and bovine DBH) | potency of nepicastat relative to the R-enantiomer ([1]; human and bovine DBH) | potency of nepicastat relative to Compound B ([1]; human enzyme) | Ki [2] | Ki [3] | Ki [4] | Ki [5] | Ki [6] | Ki [7]
1 | Fc1cc(F)cc(Cn2cc[nH]c2=S)c1 [SKF-102698, reference compound] | 85 ± 3.7 nM |  |  |  |  |  |  |  |  |  |  | 
2 | Cl.NCc1c[nH]c(=S)n1[C@H]1CCc2c(F)cc(F)cc2C1 [nepicastat, (S)-5-Aminomethyl-1-(5,7-difluoro-1,2,3,4-tetrahydronaphth-2-yl)-2,3-dihydro-2-thioxo-1H-imidazole hydrochloride] |  | > 1000 fold | 9 fold | 8-9 fold | 2-3 fold | 2 fold | > 10 µM | > 10 µM | > 10 µM | > 10 µM | > 10 µM | > 10 µM
